Test results as given in article PMC10590419, “Structural and mechanistic insights into the inhibition of respiratory syncytial virus polymerase by a non-nucleoside inhibitor” (Communications Biology, 2023).
Read-outs that look alike come from different tables or passages of the source.

What was measured:
[1] = test system: rVSV (Indiana strain-derived, luciferase reporter); experiment: microbe, parasite or virus in culture; format: cell-based, vesicular stomatitis virus
recombinant RSV L+P = recombinant RSV L+P (Human respiratory syncytial virus A, UniProt P28887); experiment: Primed single nucleotide incorporation (SNI) gel assay, recombinant RSV L+P; format: biochemical, Human RSV (strain A2)
Procedure: RNA polymerase reaction samples consisted of 0.2 μM recombinant RSV L-P polymerase, 0.2 μM of an RNA template (Le11 or Tr14), and 400 μM of a short primer (sequences as indicated in the figures), mixed in a buffer containing 50 mM Tris pH 7.4, 2 mM dithiothreitol and 6 mM MgCl2. For the assay in Fig. 1d, reactions were started by adding 100 nM [α-^32P]GTP (3000 Ci/mmol) tracer and incubated at 30 °C for 10 min. […] Reactions were stopped by adding an equal volume of gel loading buffer containing 90% formamide, 50 mM EDTA, 0.05% Xylene Cyanol, and Bromophenol Blue. Samples were denatured at 95 °C for 5 min and run on a 22.5% polyacrylamide urea sequencing gel at 80 W. The gel was transferred onto a Whatman cellulose chromatography paper (Millipore Sigma) and dried on a gel dryer (Bio-Rad) for 1 h. The dried gel was exposed to a phosphor-screen, scanned on a Typhoon phosphorimager (GE Healthcare), and quantified using ImageQuant (GE Healthcare).

[2] = 5 µM, le-11, +1 site, replicates, 5 µM
[3] = 5 µM, le-11, +3 site, replicates, 5 µM
[4] = 5 µM, tr-14, +1 site, replicates, 5 µM
[5] = le-11, +1 site, 0.00390625 uM, replicates, 0.00390625 µM
[6] = le-11, +1 site, 0.0078125 uM, replicates, 0.0078125 µM
[7] = le-11, +1 site, 0.015625 uM, replicates, 0.015625 µM
[8] = le-11, +1 site, 0.03125 uM, replicates, 0.03125 µM
[9] = le-11, +1 site, 0.0625 uM, replicates, 0.0625 µM
[10] = le-11, +1 site, 0.125 uM, replicates, 0.125 µM
[11] = le-11, +1 site, 0.25 uM, replicates, 0.25 µM

Sequence of recombinant RSV L+P (P28887 whole entry): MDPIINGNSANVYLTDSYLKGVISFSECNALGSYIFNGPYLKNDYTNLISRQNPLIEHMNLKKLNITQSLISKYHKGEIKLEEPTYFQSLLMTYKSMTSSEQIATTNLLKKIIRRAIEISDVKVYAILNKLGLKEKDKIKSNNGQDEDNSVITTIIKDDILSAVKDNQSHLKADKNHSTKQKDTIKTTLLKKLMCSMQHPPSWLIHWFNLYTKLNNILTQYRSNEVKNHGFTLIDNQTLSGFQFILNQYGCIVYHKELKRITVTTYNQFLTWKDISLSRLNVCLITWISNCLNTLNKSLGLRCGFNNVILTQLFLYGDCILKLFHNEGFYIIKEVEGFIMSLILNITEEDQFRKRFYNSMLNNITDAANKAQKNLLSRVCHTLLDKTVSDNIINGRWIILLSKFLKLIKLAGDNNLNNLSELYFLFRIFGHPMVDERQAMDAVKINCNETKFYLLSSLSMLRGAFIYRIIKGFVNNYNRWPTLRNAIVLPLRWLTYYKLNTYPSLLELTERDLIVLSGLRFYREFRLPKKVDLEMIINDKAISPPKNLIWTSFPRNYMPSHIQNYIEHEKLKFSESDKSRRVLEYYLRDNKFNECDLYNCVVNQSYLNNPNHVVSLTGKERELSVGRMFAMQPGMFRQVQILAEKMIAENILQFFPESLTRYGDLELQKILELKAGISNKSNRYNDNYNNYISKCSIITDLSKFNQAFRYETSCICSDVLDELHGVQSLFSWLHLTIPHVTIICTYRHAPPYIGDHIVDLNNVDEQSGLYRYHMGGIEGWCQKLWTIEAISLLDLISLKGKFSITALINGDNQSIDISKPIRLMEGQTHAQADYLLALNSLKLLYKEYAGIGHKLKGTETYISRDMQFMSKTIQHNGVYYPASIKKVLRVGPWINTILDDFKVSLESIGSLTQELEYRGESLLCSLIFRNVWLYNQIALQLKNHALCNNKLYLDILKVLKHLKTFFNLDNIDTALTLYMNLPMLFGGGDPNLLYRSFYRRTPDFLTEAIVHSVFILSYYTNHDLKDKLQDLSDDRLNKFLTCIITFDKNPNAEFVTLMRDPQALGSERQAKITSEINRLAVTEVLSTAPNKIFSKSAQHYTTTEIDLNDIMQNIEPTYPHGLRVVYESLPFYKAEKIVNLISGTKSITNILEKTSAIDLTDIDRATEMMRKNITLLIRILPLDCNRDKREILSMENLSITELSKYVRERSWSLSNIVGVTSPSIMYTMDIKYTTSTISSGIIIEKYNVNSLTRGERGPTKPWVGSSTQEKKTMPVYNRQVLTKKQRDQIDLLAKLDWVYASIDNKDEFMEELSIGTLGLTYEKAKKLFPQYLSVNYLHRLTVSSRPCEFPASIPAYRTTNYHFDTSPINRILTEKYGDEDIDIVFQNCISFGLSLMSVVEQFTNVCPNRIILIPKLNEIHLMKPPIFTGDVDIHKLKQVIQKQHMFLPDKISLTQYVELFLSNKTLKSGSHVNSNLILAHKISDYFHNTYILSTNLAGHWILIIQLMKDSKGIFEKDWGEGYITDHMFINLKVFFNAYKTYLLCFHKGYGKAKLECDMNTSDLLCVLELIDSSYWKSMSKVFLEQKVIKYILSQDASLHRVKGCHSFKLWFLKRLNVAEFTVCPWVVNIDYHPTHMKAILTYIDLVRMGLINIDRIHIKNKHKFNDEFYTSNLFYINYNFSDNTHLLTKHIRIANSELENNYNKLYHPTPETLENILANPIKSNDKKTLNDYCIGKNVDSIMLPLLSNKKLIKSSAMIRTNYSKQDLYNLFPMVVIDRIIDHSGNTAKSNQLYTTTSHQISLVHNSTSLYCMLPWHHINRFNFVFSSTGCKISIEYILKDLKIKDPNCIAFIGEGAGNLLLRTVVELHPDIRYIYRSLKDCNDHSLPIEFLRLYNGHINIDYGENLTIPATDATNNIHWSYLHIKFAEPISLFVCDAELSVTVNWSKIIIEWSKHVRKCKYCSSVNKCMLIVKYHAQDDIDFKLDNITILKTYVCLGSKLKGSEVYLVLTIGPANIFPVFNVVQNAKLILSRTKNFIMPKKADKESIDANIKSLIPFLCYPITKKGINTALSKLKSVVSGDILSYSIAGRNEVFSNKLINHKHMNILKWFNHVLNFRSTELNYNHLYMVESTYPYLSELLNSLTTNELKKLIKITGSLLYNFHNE
Sequence of recombinant RSV L+P (P03421 whole entry, further chain): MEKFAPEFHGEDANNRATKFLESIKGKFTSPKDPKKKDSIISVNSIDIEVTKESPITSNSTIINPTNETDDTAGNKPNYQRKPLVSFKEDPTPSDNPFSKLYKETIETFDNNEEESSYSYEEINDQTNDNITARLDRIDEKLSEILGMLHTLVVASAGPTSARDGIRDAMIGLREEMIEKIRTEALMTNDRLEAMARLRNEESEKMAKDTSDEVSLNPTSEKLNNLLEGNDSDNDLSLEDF

Structure (SMILES): COc1cc(C(=O)NC[C@](O)(c2cc(C(C)(C)O)c(F)c(-c3ccc(F)cc3)n2)C(F)(F)F)cc2cc(C)nnc12 [JNJ-8003]
- inhibition (in words) [1]: negligible inhibition
- EC50 ([1]; Vesicular stomatitis virus, A549, read-out: Median EC50): > 25 µM
- inhibition at 5 µM (recombinant RSV L+P; 5 µM, le-11, +1 site, N 2, read-out: % inhibition of SNI, AC>ACG, average): 88.8%
- inhibition at 5 µM (recombinant RSV L+P; 5 µM, le-11, +1 site, N 2, read-out: % inhibition of SNI, ACG>ACGC, average): 2.75%
- inhibition at 5 µM (recombinant RSV L+P; 5 µM, le-11, +1 site, N 2, read-out: % inhibition of SNI, ACGC>ACGCG, average): 94.8%
- inhibition at 5 µM (recombinant RSV L+P; 5 µM, le-11, +1 site, N 2, read-out: % inhibition of SNI, ACGCG>ACGCGA, average): 96.9%
- inhibition at 5 µM (recombinant RSV L+P; 5 µM, le-11, +1 site, N 2, read-out: % inhibition of SNI, ACGCGA>ACGCGAA, average): 85.3%
- % inhibition of SNI, AC>ACG (recombinant RSV L+P; [2]): 88.48%
- % inhibition of SNI, ACGC>ACGCG (recombinant RSV L+P; [2]): 96.78%
- % inhibition of SNI, ACGCG>ACGCGA (recombinant RSV L+P; [2]): 98.45%
- % inhibition of SNI, ACGCGA>ACGCGAA (recombinant RSV L+P; [2]): 88.02%
- inhibition at 5 µM (recombinant RSV L+P; 5 µM, le-11, +1 site, replicates, read-out: % inhibition of SNI, AC>ACG): 89%
- inhibition at 5 µM (recombinant RSV L+P; 5 µM, le-11, +1 site, replicates, read-out: % inhibition of SNI, ACGC>ACGCG): 92.7%
- inhibition at 5 µM (recombinant RSV L+P; 5 µM, le-11, +1 site, replicates, read-out: % inhibition of SNI, ACGCG>ACGCGA): 95.4%
- inhibition at 5 µM (recombinant RSV L+P; 5 µM, le-11, +1 site, replicates, read-out: % inhibition of SNI, ACGCGA>ACGCGAA): 82.6%
- inhibition at 5 µM (recombinant RSV L+P; 5 µM, le-11, +3 site, N 2, read-out: % inhibition of SNI, GC>GCG, average): 96.5%
- inhibition at 5 µM (recombinant RSV L+P; 5 µM, le-11, +3 site, N 2, read-out: % inhibition of SNI, GCG>GCGA, average): 74.8%
- inhibition at 5 µM (recombinant RSV L+P; 5 µM, le-11, +3 site, N 2, read-out: % inhibition of SNI, GCGA>GCGAA, average): 97.6%
- inhibition at 5 µM (recombinant RSV L+P; 5 µM, le-11, +3 site, N 2, read-out: % inhibition of SNI, GCGAA>GCGAAA, average): 93.8%
- % inhibition of SNI, GC>GCG (recombinant RSV L+P; [3]): 97.71%
- % inhibition of SNI, GCG>GCGA (recombinant RSV L+P; [3]): 79.85%
- % inhibition of SNI, GCGA>GCGAA (recombinant RSV L+P; [3]): 98.25%
- % inhibition of SNI, GCGAA>GCGAAA (recombinant RSV L+P; [3]): 91.04%
- inhibition at 5 µM (recombinant RSV L+P; 5 µM, le-11, +3 site, replicates, read-out: % inhibition of SNI, GC>GCG): 95.3%
- inhibition at 5 µM (recombinant RSV L+P; 5 µM, le-11, +3 site, replicates, read-out: % inhibition of SNI, GCG>GCGA): 69.8%
- inhibition at 5 µM (recombinant RSV L+P; 5 µM, le-11, +3 site, replicates, read-out: % inhibition of SNI, GCGA>GCGAA): 97%
- inhibition at 5 µM (recombinant RSV L+P; 5 µM, le-11, +3 site, replicates, read-out: % inhibition of SNI, GCGAA>GCGAAA): 96.5%
- inhibition at 5 µM (recombinant RSV L+P; 5 µM, tr-14, +1 site, N 2, read-out: % inhibition of SNI, AC>ACG, average): 88.2%
- inhibition at 5 µM (recombinant RSV L+P; 5 µM, tr-14, +1 site, N 2, read-out: % inhibition of SNI, ACG>ACGA, average): 8.03%
- inhibition at 5 µM (recombinant RSV L+P; 5 µM, tr-14, +1 site, N 2, read-out: % inhibition of SNI, ACGA>ACGAG, average): 95%
- inhibition at 5 µM (recombinant RSV L+P; 5 µM, tr-14, +1 site, N 2, read-out: % inhibition of SNI, ACGAG>ACGAGA, average): 88.8%
- inhibition at 5 µM (recombinant RSV L+P; 5 µM, tr-14, +1 site, N 2, read-out: % inhibition of SNI, ACGAGA>ACGAGAA, average): 90%
- % inhibition of SNI, AC>ACG (recombinant RSV L+P; [4]): 84.25%
- % inhibition of SNI, ACGA>ACGAG (recombinant RSV L+P; [4]): 93.02%
- % inhibition of SNI, ACGAG>ACGAGA (recombinant RSV L+P; [4]): 89.36%
- % inhibition of SNI, ACGAGA>ACGAGAA (recombinant RSV L+P; [4]): 89.66%
- inhibition at 5 µM (recombinant RSV L+P; 5 µM, tr-14, +1 site, replicates, read-out: % inhibition of SNI, AC>ACG): 92.2%
- inhibition at 5 µM (recombinant RSV L+P; 5 µM, tr-14, +1 site, replicates, read-out: % inhibition of SNI, ACGA>ACGAG): 96.9%
- inhibition at 5 µM (recombinant RSV L+P; 5 µM, tr-14, +1 site, replicates, read-out: % inhibition of SNI, ACGAG>ACGAGA): 88.2%
- inhibition at 5 µM (recombinant RSV L+P; 5 µM, tr-14, +1 site, replicates, read-out: % inhibition of SNI, ACGAGA>ACGAGAA): 90.3%
- SNI to the 3-mer primer from the +1 site (in words) (recombinant RSV L+P; le and tr promoter RNA): did not inhibit
- pACG formation, % inhibition (recombinant RSV L+P; [5]): 21.7616%
- pACGCG formation, % inhibition (recombinant RSV L+P; [5]): 22.5312%
- inhibition at 0.00390625 µM (recombinant RSV L+P; le-11, +1 site, 0.00390625 uM, replicates, read-out: pACG formation, % inhibition): 15.7%
- inhibition at 0.00390625 µM (recombinant RSV L+P; le-11, +1 site, 0.00390625 uM, replicates, read-out: pACGC formation, % inhibition): 22.3%
- inhibition at 0.00390625 µM (recombinant RSV L+P; le-11, +1 site, 0.00390625 uM, replicates, read-out: pACGCG formation, % inhibition): 29.7%
- pACG formation, % inhibition (recombinant RSV L+P; [6]): 22.0299%
- pACGCG formation, % inhibition (recombinant RSV L+P; [6]): 31.4378%
- inhibition at 0.0078125 µM (recombinant RSV L+P; le-11, +1 site, 0.0078125 uM, replicates, read-out: pACG formation, % inhibition): 27.9%
- inhibition at 0.0078125 µM (recombinant RSV L+P; le-11, +1 site, 0.0078125 uM, replicates, read-out: pACGC formation, % inhibition): 23.6%
- inhibition at 0.0078125 µM (recombinant RSV L+P; le-11, +1 site, 0.0078125 uM, replicates, read-out: pACGCG formation, % inhibition): 35.9%
- pACG formation, % inhibition (recombinant RSV L+P; [7]): 38.1202%
- pACGCG formation, % inhibition (recombinant RSV L+P; [7]): 40.5036%
- inhibition at 0.015625 µM (recombinant RSV L+P; le-11, +1 site, 0.015625 uM, replicates, read-out: pACG formation, % inhibition): 38.1%
- inhibition at 0.015625 µM (recombinant RSV L+P; le-11, +1 site, 0.015625 uM, replicates, read-out: pACGC formation, % inhibition): 28%
- inhibition at 0.015625 µM (recombinant RSV L+P; le-11, +1 site, 0.015625 uM, replicates, read-out: pACGCG formation, % inhibition): 35%
- pACG formation, % inhibition (recombinant RSV L+P; [8]): 56.5591%
- pACGCG formation, % inhibition (recombinant RSV L+P; [8]): 63.5179%
- inhibition at 0.03125 µM (recombinant RSV L+P; le-11, +1 site, 0.03125 uM, replicates, read-out: pACG formation, % inhibition): 61.9%
- inhibition at 0.03125 µM (recombinant RSV L+P; le-11, +1 site, 0.03125 uM, replicates, read-out: pACGC formation, % inhibition): 28.5%
- inhibition at 0.03125 µM (recombinant RSV L+P; le-11, +1 site, 0.03125 uM, replicates, read-out: pACGCG formation, % inhibition): 63.6%
- pACG formation, % inhibition (recombinant RSV L+P; [9]): 90.7902%
- pACGCG formation, % inhibition (recombinant RSV L+P; [9]): 93.3045%
- inhibition at 0.0625 µM (recombinant RSV L+P; le-11, +1 site, 0.0625 uM, replicates, read-out: pACG formation, % inhibition): 93.3%
- inhibition at 0.0625 µM (recombinant RSV L+P; le-11, +1 site, 0.0625 uM, replicates, read-out: pACGC formation, % inhibition): 29.3%
- inhibition at 0.0625 µM (recombinant RSV L+P; le-11, +1 site, 0.0625 uM, replicates, read-out: pACGCG formation, % inhibition): 92.5%
- pACG formation, % inhibition (recombinant RSV L+P; [10]): 92.6859%
- pACGCG formation, % inhibition (recombinant RSV L+P; [10]): 94.8621%
- inhibition at 0.125 µM (recombinant RSV L+P; le-11, +1 site, 0.125 uM, replicates, read-out: pACG formation, % inhibition): 94.3%
- inhibition at 0.125 µM (recombinant RSV L+P; le-11, +1 site, 0.125 uM, replicates, read-out: pACGC formation, % inhibition): 30.8%
- inhibition at 0.125 µM (recombinant RSV L+P; le-11, +1 site, 0.125 uM, replicates, read-out: pACGCG formation, % inhibition): 94.8%
- pACG formation, % inhibition (recombinant RSV L+P; [11]): 91.0112%
- pACGCG formation, % inhibition (recombinant RSV L+P; [11]): 93.3897%
- inhibition at 0.25 µM (recombinant RSV L+P; le-11, +1 site, 0.25 uM, replicates, read-out: pACG formation, % inhibition): 94.2%
- inhibition at 0.25 µM (recombinant RSV L+P; le-11, +1 site, 0.25 uM, replicates, read-out: pACGC formation, % inhibition): 17.7%
- inhibition at 0.25 µM (recombinant RSV L+P; le-11, +1 site, 0.25 uM, replicates, read-out: pACGCG formation, % inhibition): 95.2%
- pACG formation, % inhibition (recombinant RSV L+P; le-11, +1 site, 0.5 uM, replicates, 0.5 µM): 89.7151%
